# Source: the supplement of paper PMC8149375
# Assays:
# Settings in all cases: treatment: drug alone; 5 days
# [1] = test system: 769-P; test: GI50, drug alone; higher = less potent
# Procedure: (§1)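 Primary HTS: 8 RCC cell lines treated with 8 doses (up to 10 uM) of each library drug alone for 5 days; viability read by CellTiter-Glo and normalised to DMSO. GI50 was fitted with XLfit (4-parameter), AUC is the area under the dose-response curve, and minimum viability is the lowest fraction of DMSO viability across doses.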
# [2] = test system: 786-O; test: GI50, drug alone; higher = less potent
# Procedure: as §1
# [3] = test system: A498; test: GI50, drug alone; higher = less potent
# Procedure: as §1
# [4] = test system: ACHN; test: GI50, drug alone; higher = less potent
# Procedure: as §1
# [5] = test system: CAKI-1; test: GI50, drug alone; higher = less potent
# Procedure: as §1
# [6] = test system: SN12C; test: GI50, drug alone; higher = less potent
# Procedure: as §1
# [7] = test system: TK-10; test: GI50, drug alone; higher = less potent
# Procedure: as §1
# [8] = test system: UO-31; test: GI50, drug alone; higher = less potent
# Procedure: as §1
# [9] = test system: 769-P; test: minimum viability across doses, drug alone, relative to DMSO (fraction); higher = less growth inhibition
# Procedure: as §1
# [10] = test system: 786-O; test: as above
# Procedure: as §1
# [11] = test system: A498; test: as above
# Procedure: as §1
# [12] = test system: ACHN; test: as above
# Procedure: as §1
# [13] = test system: CAKI-1; test: as above
# Procedure: as §1
# [14] = test system: SN12C; test: as above
# Procedure: as §1
# [15] = test system: TK-10; test: as above
# Procedure: as §1
# [16] = test system: UO-31; test: as above
# Procedure: as §1
# [17] = test system: 769-P; test: AUC of dose-response viability curve, drug alone (arbitrary (AUC of normalised viability)); higher = less growth inhibition
# Procedure: as §1
# [18] = test system: 786-O; test: as above
# Procedure: as §1
# [19] = test system: A498; test: as above
# Procedure: as §1
# [20] = test system: ACHN; test: as above
# Procedure: as §1
# [21] = test system: CAKI-1; test: as above
# Procedure: as §1
# [22] = test system: SN12C; test: as above
# Procedure: as §1
# [23] = test system: TK-10; test: as above
# Procedure: as §1
# [24] = test system: UO-31; test: as above
# Procedure: as §1
Structure (SMILES),"GI50, drug alone [2]","GI50, drug alone [4]","GI50, drug alone [1]","GI50, drug alone [3]","GI50, drug alone [5]","GI50, drug alone [6]","GI50, drug alone [7]","GI50, drug alone [8]",minimum viability across doses [9],minimum viability across doses [10],minimum viability across doses [11],minimum viability across doses [12],minimum viability across doses [13],minimum viability across doses [14],minimum viability across doses [15],minimum viability across doses [16],AUC of dose-response viability curve [17],AUC of dose-response viability curve [18],AUC of dose-response viability curve [19],AUC of dose-response viability curve [20],AUC of dose-response viability curve [21],AUC of dose-response viability curve [22],AUC of dose-response viability curve [23],AUC of dose-response viability curve [24]
O=c1[nH]c2ccc(Cl)cc2c(N[C@@H]2CN3CCC2CC3)c1-c1nc2ccccc2[nH]1 [CHIR-124],0.0365 µM,0.0403 µM,0.129 µM,0.498 µM,0.165 µM,1.19 µM,0.129 µM,0.0832 µM,0.017,0.0053,0.0252,0.0184,0.0814,0.0133,0.168,0.0103,1.61,0.832,2.43,1.15,1.73,2.32,1.68,1.4
C=CC(=O)Nc1cc2c(Nc3ccc(F)c(Cl)c3)ncnc2cc1OCCCN1CCOCC1 [CI-1033 (Canertinib)],> 10 µM,0.532 µM,1 µM,8.55 µM,5.53 µM,5.22 µM,0.626 µM,> 10 µM,0.344,0.487,0.141,0.158,0.382,0.104,0.156,0.557,2.24,2.52,3.62,2.09,2.8,2.52,2.11,3.48
Cc1nc(N)sc1-c1ccnc(Nc2ccc(N3CCOCC3)cc2)n1 [CYC116],0.727 µM,0.975 µM,2.99 µM,7.87 µM,0.693 µM,3.21 µM,1.89 µM,8.17 µM,0.137,0.00272,0.287,0.107,0.027,0.207,0.152,0.00864,2.86,1.88,3.68,2.45,2.23,2.72,2.31,3.6
COc1cc2c(Oc3ccc4[nH]c(C)cc4c3F)ncnc2cc1OCCCN1CCCC1 [Cediranib (AZD2171)],2.6 µM,0.969 µM,5.43 µM,5.36 µM,0.74 µM,2.87 µM,2.29 µM,2.98 µM,0.293,0.129,0.17,0.0987,0.0807,0.248,0.0469,0.0213,2.94,2.5,3.15,2.5,2.35,2.55,2.62,2.76
N#CCNC(=O)c1ccc(-c2ccnc(Nc3ccc(N4CCOCC4)cc3)n2)cc1 [Cyt387],0.941 µM,1.98 µM,6.39 µM,> 10 µM,1.42 µM,8.32 µM,2.7 µM,4.29 µM,0.29,0.00487,0.868,0.0637,0.0592,0.434,0.152,0.0114,3.08,2.19,4.74,2.82,2.51,3.06,2.6,3.36
CNC(=O)c1cc(Oc2ccc(NC(=O)Nc3cc(C(C)(C)C)nn3-c3ccc4ncccc4c3)c(F)c2)ccn1 [DCC-2036 (Rebastinib)],3.76 µM,1.79 µM,> 10 µM,7.59 µM,1.25 µM,2.92 µM,2.14 µM,1.72 µM,0.752,0.359,0.0163,0.0439,0.104,0.0299,0.0459,0.00743,3.43,2.8,3.2,2.92,2.63,2.95,2.94,4.08
CN1CCN(c2ccc3nc(-c4c(N)c5c(F)cccc5[nH]c4=O)[nH]c3c2)CC1 [Dovitinib (TKI-258)],6.95 µM,0.51 µM,2.56 µM,6.94 µM,0.451 µM,0.956 µM,2.26 µM,3.54 µM,0.0627,0.395,0.351,0.116,0.13,0.079,0.252,0.207,2.64,3.27,3.15,2.18,2.18,2.36,2.5,3.69
CC(O)C(=O)O.CC(O)C(=O)O.CN1CCN(c2ccc3nc(-c4c(N)c5c(F)cccc5[nH]c4=O)[nH]c3c2)CC1 [Dovitinib Dilactic acid (TKI258 Dilactic acid)],2.9 µM,0.303 µM,3.05 µM,> 10 µM,0.43 µM,1.16 µM,3.16 µM,6.52 µM,0.034,0.191,0.494,0.107,0.0485,0.0691,0.304,0.342,3.15,2.9,4.64,2,2.21,2.38,2.61,4.66
COc1cc2nccc(Oc3ccc(NC(=O)NC4CC4)c(Cl)c3)c2cc1C(N)=O [E7080 (Lenvatinib)],> 10 µM,> 10 µM,> 10 µM,> 10 µM,2.27 µM,> 10 µM,> 10 µM,> 10 µM,0.907,0.786,0.941,0.532,0.267,0.734,0.806,1.18,3.46,3.13,3.79,3.06,2.71,3.21,3.24,2.25
C#Cc1cccc(Nc2ncnc3cc(OCCOC)c(OCCOC)cc23)c1.Cl [Erlotinib HCl],> 10 µM,1.04 µM,3.68 µM,> 10 µM,3.61 µM,> 10 µM,5.25 µM,> 10 µM,0.39,0.549,0.915,0.137,0.183,0.731,0.471,0.961,2.66,3.37,3.55,2.43,2.99,3.46,2.59,3.8
CO[C@H]1C[C@@H]2CC[C@@H](C)[C@@](O)(O2)C(=O)C(=O)N2CCCC[C@H]2C(=O)O[C@H]([C@H](C)C[C@@H]2CC[C@@H](OCCO)[C@H](OC)C2)CC(=O)[C@H](C)/C=C(\C)[C@@H](O)[C@@H](OC)C(=O)[C@H](C)C[C@H](C)/C=C/C=C/C=C/1C [Everolimus (RAD001)],0.00385 µM,0.278 µM,> 10 µM,> 10 µM,1.18 µM,> 10 µM,> 10 µM,0.0992 µM,0.56,0.293,0.851,0.39,0.406,0.631,0.538,0.314,2.37,1.21,3.45,1.85,2.14,2.56,2.3,1.96
CN1CC[C@H](c2c(O)cc(O)c3c(=O)cc(-c4ccccc4Cl)oc23)[C@H](O)C1.Cl [Flavopiridol hydrochloride],0.0369 µM,0.0707 µM,0.225 µM,0.262 µM,0.17 µM,0.174 µM,0.14 µM,0.125 µM,0.0149,0.00454,0.0135,0.00461,0.0716,0.0105,0.14,0.0096,1.84,0.837,1.92,1.27,1.85,1.63,1.57,1.74
Cc1c(CN2CCN(C(=O)[C@H](C)O)CC2)sc2c(N3CCOCC3)nc(-c3cnc(N)nc3)nc12 [GDC-0980 (RG7422)],0.495 µM,0.231 µM,0.495 µM,1.36 µM,0.19 µM,0.37 µM,0.167 µM,0.311 µM,0.0688,0.0296,0.215,0.0739,0.0405,0.133,0.0656,0.0186,2.2,2.23,3.1,1.89,1.75,2.07,1.73,2.23

# Now from value to compound, other results behind:
"GI50, drug alone [2]","GI50, drug alone [4]",Structure (SMILES),"GI50, drug alone [1]","GI50, drug alone [3]","GI50, drug alone [5]","GI50, drug alone [6]","GI50, drug alone [7]","GI50, drug alone [8]",minimum viability across doses [9],minimum viability across doses [10],minimum viability across doses [11],minimum viability across doses [12],minimum viability across doses [13],minimum viability across doses [14],minimum viability across doses [15],minimum viability across doses [16],AUC of dose-response viability curve [17],AUC of dose-response viability curve [18],AUC of dose-response viability curve [19],AUC of dose-response viability curve [20],AUC of dose-response viability curve [21],AUC of dose-response viability curve [22],AUC of dose-response viability curve [23],AUC of dose-response viability curve [24]
0.518 µM,0.344 µM,Cc1cc(Nc2cc(N3CCN(C)CC3)nc(/C=C/c3ccccc3)n2)n[nH]1.O=C(O)[C@H](O)[C@@H](O)C(=O)O [ENMD-2076],2 µM,4.11 µM,0.456 µM,1.09 µM,1.15 µM,1.56 µM,0.227,0.0558,0.427,0.109,0.038,0.162,0.146,0.0165,2.64,1.82,3.06,2.1,2.02,2.46,2.31,3.01
0.251 µM,9.24 µM,CC(C)NC[C@@H](C(=O)N1CCN(c2ncnc3c2[C@H](C)C[C@H]3O)CC1)c1ccc(Cl)cc1 [GDC-0068],> 10 µM,> 10 µM,8.11 µM,> 10 µM,2.26 µM,3.09 µM,0.81,0.252,0.82,0.529,0.52,0.758,0.375,0.0182,3.51,1.88,4.05,2.85,3.21,2.98,2.3,3.66
> 10 µM,> 10 µM,OCCn1cc(-c2ccc3c(c2)CC/C3=N\O)c(-c2ccncc2)n1 [GDC-0879],> 10 µM,> 10 µM,> 10 µM,> 10 µM,> 10 µM,> 10 µM,0.92,0.716,1.05,0.745,0.98,0.999,0.937,1.18,3.52,2.97,4.12,3.54,4.13,3.81,3.5,5.03
1.53 µM,0.69 µM,CS(=O)(=O)N1CCN(Cc2cc3nc(-c4cccc5[nH]ncc45)nc(N4CCOCC4)c3s2)CC1 [GDC-0941],1.54 µM,6.94 µM,0.563 µM,1.94 µM,0.66 µM,2.66 µM,0.221,0.254,0.397,0.264,0.149,0.323,0.207,0.227,2.65,2.46,3.39,2.41,2.28,2.56,2.27,3.82
